In patent US12145920B2, “Lanthionine c-like protein 2 ligands, cells prepared therewith, and therapies using same” (NImmune Biopharma, Inc., priority 2019, dated 2024):
“Also recorded” adds a separate entry of the source.

Legend:
[1] = Pharmacokinetics after oral dosing in mice, plasma LC-MS/MS; format: in vivo, C57BL/6 mice; design: exposure: unit not given here
Method: C57BL/6 mice were dosed orally with 10 and 40 mg/kg of BT-63 by oral gavage of methylcellulose solution containing BT-63. After gavage, blood was collected at 0.5, 1, 2, 4, 6, 8, 12 and 24 hours after treatment. Plasma was collected from blood by centrifugation. BT-63 was extracted from plasma and quantified by LC-MS/MS.

CD4+ T cells = experiment: Immune effects in CD4+ splenocytes, flow cytometry (wild type); format: cell-based, C57BL/6 mice
Excerpt: (§1) Cell culture. Spleens were excised from C57BL/6 mice and assessed in wild-type and LANCL2 deficient states. Spleens were crushed between the frosted ends of microscope slides and filtered to provide a cellular suspension. Red blood cells were lysed through hypotonic lysis. Remaining cells were washed and filtered. CD4+ T cells were enriched within the suspension using magnetic sorting based negative selection. Cells were collected and plated within 96 well plates coated with anti-CD3 and cultured in the presence of BT-63 at 0, 0.1, 1 and 10 micromolar or BT-104A, BT-104B, or BT-104C at 0.1 micromolar for 48 h. During the last 6 h of culture, cells were stimulated with phorbol 12-myristate-13-acetate (PMA) and ionomycin.
(§2) Immunological analysis. Cells were collected from 96 well plates and stained with a cocktail of antibodies for immunophenotyping by flow cytometry. Culture supernatant was collected and assayed for cytokine concentrations by cytometric bead array. Data was captured on a BD FACS Celesta and analyzed using FacsDiva.

[2] = system: LANCL2 deficient CD4+ T cells; experiment: Immune effects in CD4+ splenocytes, flow cytometry (LANCL2 deficient); format: cell-based, C57BL/6 mice; details: in the absence of LANCL2, 0.1, 1 and 10 μM
Excerpt: as §1, §2

[3] = system: resiquimod-treated C57BL6 mice; experiment: TLR7/9 (resiquimod) induced mouse model of SLE; format: in vivo
Method: Resiquimod model. Resiquimod was prepared in a 1:3 ethanol:acetone mixture to provide 85 micrograms of resiquimod to each mouse. Resiquimod solution was well mixed and applied to the ear of C57BL6 mice three times weekly over a 2-week period. Mice were monitored for signs of disease daily.
Treatment administration. BT-63 was prepared within a 0.5% methylcellulose (12-15 cP) solution. Dosage used was 20 mg/kg delivered once daily. Mice were weighed on a weekly basis to update dosage formulation. Dosage was calculated based off mean body weights for each gender. Oral dosage was delivered by orogastric gavage of dosage in 0.2 mL volume.
Immunological analysis. Blood was collected by cardiac puncture into EDTA tube. Plasma was separated following centrifugation and assayed by ELISA for anti-dsDNA antibodies. Urine was collected for assay for albumin content to test for kidney function.
Spleens were excised, crushed and filtered to provide a cellular suspension. Red blood cells were lysed. Cells were labeled with mixtures of extracellular (CD45, CD3, CD4, CD8, CD19, NK1.1, CD25, F4/80, CD11b, Gr1, CX3CR1, CD64) and intracellular (Tbet, BCL6, FOXP3, IFNγ, IL6, IL10) antibodies in a sequential live staining in 96-well plates in preparation for flow cytometry. Data was captured on a BD FACS Celesta and analyzed using FacsDiva.

Naïve CD4+ T cells = experiment: In vitro Treg differentiation of naive CD4+ T cells with BT-63; format: cell-based, mice
Method: Naïve CD4+ T cells can be isolated from the spleens of mice by magnetic sorting. The isolated cells can be incubated in anti-CD^3/anti-CD28 coated 96 well plates in Treg differentiation media. The Treg differentiation media can be Iscove's Modified Dulbecco's Medium (IMDM) media (ThermoFisher Scientific) supplemented with fetal bovine serum, HEPES, penicillin/streptomycin, L-glutamine, and differentiation agents. The Treg differentiation agents can be 10 nM all-trans-retinoic acid and 5 ng/mL TGF-β. Additional experiments can be conducted comparing differentiation in the Treg differentiation media with and without the addition of 10 ng/mL IL-2 or IL-12. Cells can be incubated with vehicle, 10 nM, or 100 nM BT-63 in differentiation media for 48 hours prior to assay. Prior to assay, cells can be stimulated with PMA and ionomycin for 6 hours.
Colonic lamina propria lymphocytes and cultured cells can be plated in 96 well plates (6×10^5 cells/well) and processed for immunophenotyping by flow cytometry as previously described. Briefly, cells can be incubated with fluorochrome conjugated antibodies to extracellular markers: CD45, CD4, CD3, CD25, CD8. Samples needing a secondary staining can be incubated with secondary antibodies, or streptavidin-conjugated fluorochrome. The samples can then be fixed and permeabilized. Cells can be incubated with antibodies to intracellular markers: Tbet, IFNγ, IL10, FOXP3, IL17, RORγT. Data can be acquired with a BD FACS Celesta flow cytometer and analyzed using FACS Diva software (BD Pharmingen).

[4] = system: colonic CD4+ T cells from Mdr1a-/- mice; experiment: Gene expression in colonic CD4+ T cells of treated Mdr1a-/- mice; format: in vivo; details: oral treatment, 10 weeks of age
Excerpt: To identify signaling pathways modulated by BT-63 in vivo, we will isolate colonic CD4+ T cells from vehicle- and BT-63-treated Mdr1a−/− mice at presentation of colitis at 10 weeks of age. […] Meanwhile, expression of Pten and Ph1pp1 will increase. […] Cells will also be differentiated in the presence of inhibitors for PTEN (SF1670) or STATS (STAT5i). In the Treg differentiation media containing both IL-2 or IL-12, the addition of STAT5i will prevent the effects of BT-63 on CD25+ FOXP3+ and CD25+ Tbet+ cells. In contrast, SF1670 only will prevent effects of BT-63 on CD25+ Tbet+ cells in IL-2 containing media.

[5] = wild-type cells, 0.1, 1 and 10 μM, 48 h
[6] = 2 weeks of oral treatment, 20 mg/kg

## O=C(CN1CCN(C(=O)c2cccc(-c3nc4ccccc4[nH]3)n2)CC1)c1ccccc1 [BT-63, 2-(4-(6-(1H-benzo[d]imidazol-2-yl)picolinoyl)piperazin-1-yl)-1-phenylethanone]
[1]; equal oral doses (10 mg/kg)
  increase in maximum plasma concentration compared to BT-11: > 100 fold
[1]; oral 10 mg/kg
  area under the curve exposure: 1.055 µg·h/mL
  maximum plasma concentration: 585 ng/mL
[1]; oral 40 mg/kg
  exposure: 11552
  maximum plasma concentration: 4465 ng/mL
CD4+ T cells; 0.1, 1 and 10 micromolar, FIG. 4A
  FOXP3+ CD4+ T cells: significant increase
CD4+ T cells; [5]
  proportions of IFNγ+ CD4+ T cells: reduced; also recorded: significant decrease
  proportions of IL10+ FOXP3+ CD4+ T cells: increased
  proportions of TNFa-producing CD4+ T cells: reduced
[2]
  effects on IFNγ+, TNFa+ and IL10+ FOXP3+ CD4+ T cells: lost
[3]; [6]
  concentration of anti-dsDNA antibodies in plasma: reduces
  urine albumin content: reduction
[3]; spleen, 2 weeks, 20 mg/kg oral
  IFNγ+ CD8+ T cells: reduced
  IL6+ cells: reduced
Naïve CD4+ T cells; 100 nM, absence of IL-2
  establishment of a CD25+ FOXP3+ subtype: significantly increase
Naïve CD4+ T cells; IL-12-treated samples
  CD25+ FOXP3+ cells: significantly higher levels
Naïve CD4+ T cells; Treg differentiation with or without IL-2
  mixed CD25+ Tbet+ subtype: not be statistically altered
Naïve CD4+ T cells; addition of IL-12
  CD25+ Tbet+ cells: dose-dependent protection
Naïve CD4+ T cells; base Treg differentiation media, also with IL-2 or IL-12
  STAT5a phosphorylation: phosphorylated in a greater ratio
Naïve CD4+ T cells; base media and media containing IL-2, not IL-12
  FOXO1 phosphorylation: similarly be affected
Naïve CD4+ T cells; concentrations as low as 10 nM, presence of IL-2
  CD25+ FOXP3+ cells: significantly more
[4]
  expression of Foxo1: significantly higher expression
  expression of Ph1pp1: increase
  expression of Pten: increase
  expression of Stat5a: significantly higher expression
